Structures can show the parent of a compound that is named as a salt.
Tests used:
Human 5-HT Transporter = Human 5-HT Transporter (Homo sapiens, UniProt P31645); experiment: Inhibition of 3H-5-HT Uptake by Cells Possessing the Human 5-HT Transporter (HC 5HT Transporter), Jar cells; settings: HC-5HTC Transporter Ki (nM), Jar cells treated with staurosporine
Sequence of Human 5-HT Transporter (P31645 whole entry): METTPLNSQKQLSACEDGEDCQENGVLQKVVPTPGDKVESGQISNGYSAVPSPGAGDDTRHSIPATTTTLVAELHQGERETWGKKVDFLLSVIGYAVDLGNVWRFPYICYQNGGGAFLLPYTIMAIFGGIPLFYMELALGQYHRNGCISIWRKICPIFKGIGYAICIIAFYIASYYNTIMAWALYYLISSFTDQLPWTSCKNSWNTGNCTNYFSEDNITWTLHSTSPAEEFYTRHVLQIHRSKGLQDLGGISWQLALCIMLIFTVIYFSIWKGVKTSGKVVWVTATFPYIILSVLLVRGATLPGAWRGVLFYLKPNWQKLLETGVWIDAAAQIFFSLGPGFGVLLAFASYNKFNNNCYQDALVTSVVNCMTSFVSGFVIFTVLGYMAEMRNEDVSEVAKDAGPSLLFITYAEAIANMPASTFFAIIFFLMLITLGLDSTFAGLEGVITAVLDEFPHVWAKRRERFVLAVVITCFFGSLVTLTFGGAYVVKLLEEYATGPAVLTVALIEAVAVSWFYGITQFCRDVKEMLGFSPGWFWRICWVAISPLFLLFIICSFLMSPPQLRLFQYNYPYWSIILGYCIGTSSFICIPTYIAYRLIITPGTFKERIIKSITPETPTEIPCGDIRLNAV

Row | melting point [°C] | Ki (Human 5-HT Transporter) [nM] | Structure (SMILES)
1 | 55 | – | Fc1cc(N2CCN(CCc3coc4ccc(F)cc34)CC2)c2ncccc2c1 (as salt: HCl) [Compound 17, 8-{4-[2-(5-fluoro-1-benzofuran-3-yl)ethyl]-1-piperazinyl}-6-fluoro-quinoline]
2 | – | 612 | COc1cc(N2CCN(CCc3coc4ccccc34)CC2)c2ncccc2c1 [Compound 4, 8-{4-[2-(1-benzofuran-3-yl)ethyl]-1-piperazinyl}-6-methoxyquinoline]
3 | – | 1.6 | Clc1ccc2c(CCN3CCN(c4cccc5cccnc45)CC3)coc2c1 [Compound 5, 8-{4-[2-(6-chloro-1-benzofuran-3-yl)ethyl]-1-piperazinyl}-quinoline]
4 | – | 1080 | Fc1cc(N2CCN(CCc3coc4cc(Cl)ccc34)CC2)c2ncccc2c1 [Compound 6, 8-{4-[2-(6-chloro-1-benzofuran-3-yl)ethyl]-1-piperazinyl}-6-fluoro-quinoline]
5 | – | 71.3 | COc1ccc2c(CCN3CCN(c4cccc5cccnc45)CC3)coc2c1 [Compound 9, 8-{4-[2-(6-methoxy-1-benzofuran-3-yl)ethyl]-1-piperazinyl}-quinoline]
6 | – | 540 | COc1ccc2c(CCN3CCN(c4cc(Cl)cc5cccnc45)CC3)coc2c1 [Compound 11, 8-{4-[2-(6-methoxy-1-benzofuran-3-yl)ethyl]-1-piperazinyl}-6-chloro-quinoline]
7 | – | 9.82 | Cc1cc(N2CCN(CCc3coc4ccc(Cl)cc34)CC2)c2ncccc2c1 [Compound 14, 8-{4-[2-(5-chloro-1-benzofuran-3-yl)ethyl]-1-piperazinyl}-6-methyl-quinoline]
8 | – | 180 | COc1cc(N2CCN(CCc3coc4ccc(F)cc34)CC2)c2ncccc2c1 [Compound 16, 8-{4-[2-(5-fluoro-1-benzofuran-3-yl)ethyl]-1-piperazinyl}-6-methoxy-quinoline]
9 | – | 47.7 | COc1cccc2c(CCN3CCN(c4cc(Cl)cc5cccnc45)CC3)coc12 [Compound 20, 8-{4-[2-(7-methoxy-1-benzofuran-3-yl)ethyl]-1-piperazinyl}-6-chloro-quinoline]
10 | – | 210 | COc1cc(N2CCN(CCc3coc4ccc(OC)cc34)CC2)c2ncccc2c1 [Compound 25, 8-{4-[2-(5-methoxy-1-benzofuran-3-yl)ethyl]-1-piperazinyl}-6-methoxy-quinoline]
11 | – | 115 | CC(CN1CCN(c2cc(F)cc3cccnc23)CC1)c1coc2ccccc12 (stereo not drawn) [Compound 29, 8-{4-[2-(1-benzofuran-3-yl)propyl]-1-piperazinyl}-6-fluoro-quinoline]
12 | – | 9.53 | COc1cccc2c(C(C)CN3CCN(c4cccc5cccnc45)CC3)coc12 (stereo not drawn) [Compound 31, 8-{4-[2-(7-methoxy-1-benzofuran-3-yl)propyl]-1-piperazinyl}quinoline]
13 | – | 183 | COc1cccc2c(C(C)CN3CCN(c4cc(Cl)cc5cccnc45)CC3)coc12 (stereo not drawn) [Compound 33, 8-{4-[2-(7-methoxy-1-benzofuran-3-yl)propyl]-1-piperazinyl}-6-chloro-quinoline]
14 | – | 881 | COc1cccc2c(C(C)CN3CCN(c4cc(C)cc5cccnc45)CC3)coc12 (stereo not drawn) [Compound 34, 8-{4-[2-(7-methoxy-1-benzofuran-3-yl)propyl]-1-piperazinyl}-6-methyl-quinoline]
15 | – | 31 | COc1cc(N2CCN(C(C)Cc3coc4c(OC)cccc34)CC2)c2ncccc2c1 (stereo not drawn) [Compound 36, 6-methoxy-8-{4-[2-(7-methoxy-1-benzofuran-3-yl)-1-methylethyl)piperazin-1-yl]quinoline]
16 | – | 40.1 | COc1ccc2occ(CC(C)N3CCN(c4cc(Cl)cc5cccnc45)CC3)c2c1 (stereo not drawn) [Compound 39, 6-chloro-8-{4-[2-(5-methoxy-1-benzofuran-3-yl)-1-methylethyl)piperazin-1-yl]quinoline]
17 | – | 549 | COc1ccc2occ(CC(C)N3CCN(c4cc(C)cc5cccnc45)CC3)c2c1 (stereo not drawn) [Compound 40, 6-methyl-8-{4-[2-(5-methoxy-1-benzofuran-3-yl)-1-methylethyl)piperazin-1-yl]quinoline]
18 | – | 472 | Fc1cc(N2CCN([C@H]3CC[C@@H](c4coc5ccccc54)CC3)CC2)c2ncccc2c1 [Compound 55, 8-{4-[4-cis(1-benzofuran-3-yl)cyclohexyl]-1-piperazinyl}-6-fluoroquinoline]
19 | – | 53 | COc1ccc2occ([C@H]3CC[C@@H](N4CCN(c5ccc(Cl)c6cccnc56)CC4)CC3)c2c1 [Compound 65, 5-chloro-8-{4-[4-cis(5-methoxy-1-benzofuran-3-yl)cyclohexyl]piperazin-1-yl}quinoline]
20 | – | 1200 | COc1ccc2occ([C@H]3CC[C@H](N4CCN(c5ccc(Cl)c6cccnc56)CC4)CC3)c2c1 [Compound 66, 5-chloro-8-{4-[4-trans(5-methoxy-1-benzofuran-3-yl)cyclohexyl]piperazin-1-yl}quinoline]

The next lines start with the molecule.

Row | Structure (SMILES) | melting point [°C] | Ki (Human 5-HT Transporter) [nM]
21 | COc1cc(N2CCN(CCc3coc4ccc(F)cc34)CC2)c2ncccc2c1 (as salt: HCl) [Compound 16, 8-{4-[2-(5-fluoro-1-benzofuran-3-yl)ethyl]-1-piperazinyl}-6-methoxy-quinoline] | 80 | –
22 | COc1cc(N2CCN(CCc3coc4c(OC)cccc34)CC2)c2ncccc2c1 (as salt: HCl) [Compound 19, 8-{4-[2-(7-methoxy-1-benzofuran-3-yl)ethyl]-1-piperazinyl}-6-methoxy-quinoline] | 86 | –
23 | Clc1cc(N2CCN(CCc3coc4ccccc34)CC2)c2ncccc2c1 [Compound 2, 8-{4-[2-(1-benzofuran-3-yl)ethyl]-1-piperazinyl}-6-chloroquinoline] | – | 1710
24 | Cc1cc(N2CCN(CCc3coc4ccccc34)CC2)c2ncccc2c1 [Compound 3, 8-{4-[2-(1-benzofuran-3-yl)ethyl]-1-piperazinyl}-6-methylquinoline] | – | 75.6
25 | Cc1cc(N2CCN(CCc3coc4cc(Cl)ccc34)CC2)c2ncccc2c1 [Compound 8, 8-{4-[2-(6-chloro-1-benzofuran-3-yl)ethyl]-1-piperazinyl}-6-methyl-quinoline] | – | 1780
26 | COc1ccc2c(CCN3CCN(c4cc(C)cc5cccnc45)CC3)coc2c1 [Compound 10, 8-{4-[2-(6-methoxy-1-benzofuran-3-yl)ethyl]-1-piperazinyl}-6-methyl-quinoline] | – | 206
27 | Clc1ccc2occ(CCN3CCN(c4cccc5cccnc45)CC3)c2c1 [Compound 12, 8-{4-[2-(5-chloro-1-benzofuran-3-yl)ethyl]-1-piperazinyl}-quinoline] | – | 42.2
28 | Clc1cc(N2CCN(CCc3coc4ccc(Cl)cc34)CC2)c2ncccc2c1 [Compound 13, 8-{4-[2-(5-chloro-1-benzofuran-3-yl)ethyl]-1-piperazinyl}-6-chloro-quinoline] | – | 270
29 | Fc1ccc2occ(CCN3CCN(c4cccc5cccnc45)CC3)c2c1 [Compound 15, 8-{4-[2-(5-fluoro-1-benzofuran-3-yl)ethyl]-1-piperazinyl}-quinoline] | – | 67.2
30 | Fc1cc(N2CCN(CCc3coc4ccc(F)cc34)CC2)c2ncccc2c1 [Compound 17, 8-{4-[2-(5-fluoro-1-benzofuran-3-yl)ethyl]-1-piperazinyl}-6-fluoro-quinoline] | – | 50.9
31 | COc1cccc2c(CCN3CCN(c4cccc5cccnc45)CC3)coc12 [Compound 18, 8-{4-[2-(7-methoxy-1-benzofuran-3-yl)ethyl]-1-piperazinyl}-quinoline] | – | 9.46
32 | COc1ccc2occ(CCN3CCN(c4cc(C)cc5cccnc45)CC3)c2c1 [Compound 23, 8-{4-[2-(5-methoxy-1-benzofuran-3-yl)ethyl]-1-piperazinyl}-6-methyl-quinoline] | – | 182
33 | COc1ccc2occ(CCN3CCN(c4cc(F)cc5cccnc45)CC3)c2c1 [Compound 26, 8-{4-[2-(5-methoxy-1-benzofuran-3-yl)ethyl]-1-piperazinyl}-6-fluoro-quinoline] | – | 51
34 | CC(CN1CCN(c2cccc3cccnc23)CC1)c1coc2ccccc12 (stereo not drawn) [Compound 27, 8-{4-[2-(1-benzofuran-3-yl)propyl]-1-piperazinyl}quinoline] | – | 51.9
35 | CC(CN1CCN(c2cc(Cl)cc3cccnc23)CC1)c1coc2ccccc12 (stereo not drawn) [Compound 28, 8-{4-[2-(1-benzofuran-3-yl)propyl]-1-piperazinyl}-6-chloro-quinoline] | – | 125
36 | Cc1cc(N2CCN(CC(C)c3coc4ccccc34)CC2)c2ncccc2c1 (stereo not drawn) [Compound 30, 8-{4-[2-(1-benzofuran-3-yl)propyl]-1-piperazinyl}-6-methyl-quinoline] | – | 347
37 | COc1cccc2c(C(C)CN3CCN(c4cc(C)cc5cccnc45)CC3)coc12 (stereo not drawn) [Compound 32, 8-{4-[2-(7-methoxy-1-benzofuran-3-yl)propyl]-1-piperazinyl}-6-methyl-quinoline] | – | 58.2
38 | COc1cc(N2CCN([C@H]3CC[C@@H](c4csc5ccc(F)cc54)CC3)CC2)c2ncccc2c1 [Compound 49, 6-methoxy-8-{4-[4-cis(5-fluoro-1-benzothien-3-yl)cyclohexyl]piperazin-1-yl}quinoline] | – | 659
39 | COc1cc(N2CCN([C@H]3CC[C@H](c4csc5ccc(F)cc54)CC3)CC2)c2ncccc2c1 [Compound 50, 6-methoxy-8-{4-[4-trans(5-fluoro-1-benzothien-3-yl)cyclohexyl]piperazin-1-yl}quinoline] | – | 65.3
40 | COc1cccc2c1occ2[C@H]1CC[C@H](N2CCN(c3ccc(F)c4cccnc34)CC2)CC1 [Compound 58, 5-fluoro-8-{4-[4-trans(7-methoxy-1-benzofuran-3-yl)cyclohexyl]-1-piperazinyl}quinoline] | – | 272
41 | COc1cccc2c1occ2[C@H]1CC[C@@H](N2CCN(c3ccc(Cl)c4cccnc34)CC2)CC1 [Compound 63, 5-chloro-8-{4-[4-cis(7-methoxy-1-benzofuran-3-yl)cyclohexyl]piperazin-1-yl}quinoline] | – | 124
42 | COc1cccc2c1occ2[C@H]1CC[C@H](N2CCN(c3ccc(Cl)c4cccnc34)CC2)CC1 [Compound 64, 5-chloro-8-{4-[4-trans(7-methoxy-1-benzofuran-3-yl)cyclohexyl]piperazin-1-yl}quinoline] | – | 176

From patent US20090054454A1, “BENZOFURANYL- AND BENZOTHIENYL- PIPERAZINYL QUINOLINES AND METHODS OF THEIR USE” (priority 2007, published 2009)
